Eleven compounds from ChEMBL document CHEMBL1201862, “PubChem BioAssay data set” (2004) can be followed below.

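Where inhibition never reached the appropriate level, the endpoint shown equals the highest concentration tested. Otherwise, values were interpolated linearly from a five-concentration, 48-hour dose response in 96-well plates. GI50 is the concentration that inhibits growth by half.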 The source made the active and inactive calls. Cut-off read from the data, not from the text of the source: active = GI50 up to about 1.1 µM and inactive = higher.

What all share (test): NCI-60 cell line screen, 48 h
Assay [1] relates to ACHN.
Assay [2] concerns CAKI-1.
The test system of assay [3] is EKVX.
In assay [4] the test system is HCT-15.
Assay [5] has as its system HT-29.
The subject of assay [6] is KM-20L2.
In assay [7] the test system is LOX IMVI.
The test system of assay [8] is M14.
Assay [9] deals with OVCAR-4.
The subject of assay [10] is OVCAR-8.
The subject of assay [11] is RPMI-8226.
The subject of assay [12] is SK-MEL-5.
Assay [13] deals with SK-OV-3.
Assay [14] deals with SW-620.
Assay [15] relates to UACC-62.
The test system of assay [16] is XF498.
The test system of assay [17] is HCC 2998.
In assay [18] the test system is KM12.
For assay [19], the system named is NCI-H522.
Assay [20] relates to SF-268.

Regarding `CC(=O)C1C(c2ccc(N(C)C)cc2)c2cc3c(cc2OC1(C)O)OCO3` (configuration not stated), the GI50 was 41.2 µM (inactive) in assay [1]; 20.5 µM (inactive) in [2]; 77.6 µM (inactive) in [3]; 41.3 µM in assay [4]; 23.2 µM (inactive) in assay [5]; 6.85 µM (inactive) in [6]. The GI50 was 42.1 µM (inactive) in assay [7]; 43.8 µM (inactive) in assay [8]; 33.7 µM (inactive) in assay [9]; 73.5 µM (inactive) in [10]; 26.7 µM (inactive) in assay [11]; 30.8 µM (inactive) in assay [12]. Besides, the GI50 in assay [13] is 55.3 µM (inactive); in assay [14], 40.2 µM (inactive); in [15], 32.9 µM (inactive); in assay [16], 34 µM (inactive).

`COC(=O)C(C(=O)C(=O)Nc1ccc(C)cc1)c1nc2ccc([N+](=O)[O-])cc2nc1O` (configuration not stated): the GI50 was > 100 µM (inactive) in assay [1]; > 100 µM (inactive) in assay [2]; > 100 µM (inactive) in [3]; > 100 µM (inactive) in [17]; > 100 µM in assay [4]; > 100 µM (inactive) in assay [5]. For the same compound, the GI50 is > 100 µM (inactive) in [6]; > 100 µM (inactive) in assay [18]; > 100 µM (inactive) in [7]; > 100 µM (inactive) in [8]; 6.93 µM (inactive) in assay [19]; > 100 µM (inactive) in assay [9]. In addition, the GI50 is > 100 µM (inactive) in assay [10]; > 100 µM (inactive) in assay [20]; 49.1 µM (inactive) in assay [12]; > 100 µM (inactive) in assay [13]; > 100 µM (inactive) in assay [14]; 85.7 µM (inactive) in assay [15]. Moreover, the GI50 in [16] was > 100 µM (inactive).

For `CC(=O)OCC1OC(n2cc(F)c(=O)[nH]c2=O)C(NC(=O)N(CCCl)N=O)C(OC(C)=O)C1OC(C)=O` (configuration not stated), the GI50 was > 100 µM (inactive) in assay [1]; > 100 µM (inactive) in assay [2]; > 100 µM (inactive) in assay [5]; > 100 µM (inactive) in assay [6]; > 100 µM (inactive) in assay [18]; 43.3 µM (inactive) in assay [7]. The GI50 was > 100 µM (inactive) in [8]; > 100 µM (inactive) in [19]; > 100 µM (inactive) in [9]; > 100 µM (inactive) in [10]; > 100 µM (inactive) in assay [11]; 17.3 µM (inactive) in assay [20]. Besides, the GI50 is > 100 µM (inactive) in [12]; > 100 µM (inactive) in assay [13]; > 100 µM (inactive) in [14]; 23.2 µM (inactive) in [15]; 36.4 µM (inactive) in [16].

Take `CC(=O)c1cccc(N2COC(C)(C)c3nc4ccccc4n3C2)c1`: the GI50 in [1] was > 100 µM (inactive); in assay [3], > 100 µM (inactive); in assay [17], > 100 µM (inactive); in assay [4], > 100 µM; in [5] it was > 100 µM (inactive); in assay [6], > 100 µM (inactive). Further, the GI50 in assay [18] is > 100 µM (inactive); in [7], > 100 µM (inactive); in [8] it was > 100 µM (inactive); in assay [19], > 100 µM (inactive); in assay [9], 14.3 µM (inactive); in [10] it was > 100 µM (inactive). Further, the GI50 in [11], in assay [20], in [13], in assay [14], in assay [15] and in assay [16] was > 100 µM (inactive) throughout.

Regarding `CS/C(=N/C#N)NCCc1c[nH]c2ccccc12`, the GI50 in assay [1] was 25.1 µM (inactive); in [3] it was 18 µM (inactive); in assay [17] it was > 100 µM (inactive); in assay [4], > 100 µM; in assay [5], 98.4 µM (inactive); in assay [6] it was 44.9 µM (inactive). In addition, the GI50 in [18] is > 100 µM (inactive); in assay [7], > 100 µM (inactive); in assay [8] it was > 100 µM (inactive); in assay [9], > 100 µM (inactive); in assay [10] it was > 100 µM (inactive); in [11], 96.8 µM (inactive). Moreover, the GI50 is > 100 µM (inactive) in assay [20]; 76 µM (inactive) in assay [12]; > 100 µM (inactive) in assay [13]; > 100 µM (inactive) in [14]; > 100 µM (inactive) in assay [15]; 34.8 µM (inactive) in assay [16].

With `CC(=O)Nc1cc2c(s1)CCC1CC(=O)NN=C21` (configuration not stated), the GI50 in assay [1] was > 100 µM (inactive); in assay [3], > 100 µM (inactive); in assay [4], > 100 µM; in assay [5], > 100 µM (inactive); in [6], > 100 µM (inactive); in assay [18] it was > 100 µM (inactive). For the same compound, the GI50 in [7], in [8], in assay [19], in assay [9], in assay [10] and in assay [11] was > 100 µM (inactive) each time. For the same compound, the GI50 in [20], in assay [12], in assay [14], in assay [15] and in assay [16] was > 100 µM (inactive) each time.

As for `CCOC(=O)C1=NC(c2ccccc2)(c2ccccc2)OC1=C(Cl)Cl`, the GI50 in [1] is 50.4 µM (inactive); in [2], > 100 µM (inactive); in [3] it was 35.5 µM (inactive); in [17] it was 18.5 µM (inactive); in assay [4], 70.1 µM; in [5] it was 32.4 µM (inactive). The GI50 is 49.3 µM (inactive) in [6]; 94 µM (inactive) in [18]; 46 µM (inactive) in assay [7]; 85.9 µM (inactive) in assay [8]; 23.1 µM (inactive) in assay [19]; 63 µM (inactive) in assay [9]. Besides, the GI50 is > 100 µM (inactive) in [10]; 19.1 µM (inactive) in [11]; > 100 µM (inactive) in [20]; 39.5 µM (inactive) in [12]; > 100 µM (inactive) in assay [13]; 82.4 µM (inactive) in [14]. The GI50 in [15] is 99.8 µM (inactive).

Consider `O=C(NC(=O)c1cn(CCN(CCO)C(=O)NCCCCCCNC(=O)N(CCO)CCn2cc(C(=O)NC(=O)OCc3ccccc3)c(=O)[nH]c2=O)c(=O)[nH]c1=O)OCc1ccccc1`, for which the GI50 was > 100 µM (inactive) in assay [1]; > 100 µM (inactive) in [2]; > 100 µM (inactive) in [3]; > 100 µM in assay [4]; > 100 µM (inactive) in assay [5]; > 100 µM (inactive) in assay [6]. Besides, the GI50 in assay [7], in assay [8], in [9], in [10], in assay [11] and in [12] was > 100 µM (inactive) each time. Also, the GI50 in assay [13], in assay [14], in assay [15] and in assay [16] was > 100 µM (inactive) each time.

Turning to `O=C(/N=c1/[nH]/c(=N/C(=O)c2ccccc2)ss1)c1ccccc1`, the GI50 was 13.8 µM (inactive) in [1]; 30.3 µM (inactive) in assay [2]; 25.4 µM (inactive) in assay [3]; 18 µM (inactive) in assay [17]; 21.4 µM in assay [4]; 16.6 µM (inactive) in assay [5]. For the same compound, the GI50 was 29.5 µM (inactive) in assay [6]; 27.7 µM (inactive) in assay [18]; 23.9 µM (inactive) in [7]; 27.9 µM (inactive) in [8]; 5.78 µM (inactive) in [19]; 38.1 µM (inactive) in assay [9]. The GI50 in assay [10] was 27.3 µM (inactive); in assay [11], 6.35 µM (inactive); in assay [20] it was 25.8 µM (inactive); in [12] it was 5.11 µM (inactive); in assay [13], 34.7 µM (inactive); in assay [14] it was 25.5 µM (inactive). For the same compound, in [15], the GI50 is > 10 µM (inactive).

Regarding `O=S(O)CCCSSc1ccccc1`, the GI50 in assay [1] is 48 µM (inactive); in [2], 27 µM (inactive); in [3], 36.1 µM (inactive); in [17], 76.9 µM (inactive); in assay [4], 35.5 µM; in assay [5] it was 46.9 µM (inactive). Besides, the GI50 is 51.1 µM (inactive) in assay [6]; 31.1 µM (inactive) in assay [18]; 29.3 µM (inactive) in assay [7]; 37.1 µM (inactive) in [8]; 18.3 µM (inactive) in assay [19]; 98.4 µM (inactive) in assay [9]. Further, the GI50 in [10] was 26.5 µM (inactive); in assay [20], 18.7 µM (inactive); in assay [12], 22.5 µM (inactive); in assay [13] it was 99.3 µM (inactive); in assay [14] it was 47.3 µM (inactive); in assay [15] it was 36.6 µM (inactive). Further, the GI50 in [16] was 98.9 µM (inactive).

As for `CC1(C)CCC[C@@]2(C)C1CCC1(C)C(CCc3ccoc3)/C(=C/OS(=O)(=O)O)CCC12` (some centres not stated), the GI50 in [1] is > 100 µM (inactive); in [2], > 100 µM (inactive); in assay [3], > 100 µM (inactive); in assay [17], > 100 µM (inactive); in [4] it was 49.5 µM; in assay [5], 40.9 µM (inactive). Besides, the GI50 was 38.2 µM (inactive) in assay [6]; > 100 µM (inactive) in assay [18]; > 100 µM (inactive) in assay [7]; 42.7 µM (inactive) in assay [8]; 52.5 µM (inactive) in assay [9]; > 100 µM (inactive) in [10]. The GI50 in assay [11] is 33.7 µM (inactive); in assay [20], > 100 µM (inactive); in assay [12], > 100 µM (inactive); in [13], 71.9 µM (inactive); in assay [14], 54.3 µM (inactive); in assay [15], > 100 µM (inactive). For the same compound, in [16], the GI50 is > 100 µM (inactive).
